Measurements from PMC8161495 (ACS Central Science, 2021).

Target: T1, full-length rat TRPV2 (rTRPV2) (Rattus norvegicus, UniProt Q9WUD2)
T1 sequence (Q9WUD2 1-761): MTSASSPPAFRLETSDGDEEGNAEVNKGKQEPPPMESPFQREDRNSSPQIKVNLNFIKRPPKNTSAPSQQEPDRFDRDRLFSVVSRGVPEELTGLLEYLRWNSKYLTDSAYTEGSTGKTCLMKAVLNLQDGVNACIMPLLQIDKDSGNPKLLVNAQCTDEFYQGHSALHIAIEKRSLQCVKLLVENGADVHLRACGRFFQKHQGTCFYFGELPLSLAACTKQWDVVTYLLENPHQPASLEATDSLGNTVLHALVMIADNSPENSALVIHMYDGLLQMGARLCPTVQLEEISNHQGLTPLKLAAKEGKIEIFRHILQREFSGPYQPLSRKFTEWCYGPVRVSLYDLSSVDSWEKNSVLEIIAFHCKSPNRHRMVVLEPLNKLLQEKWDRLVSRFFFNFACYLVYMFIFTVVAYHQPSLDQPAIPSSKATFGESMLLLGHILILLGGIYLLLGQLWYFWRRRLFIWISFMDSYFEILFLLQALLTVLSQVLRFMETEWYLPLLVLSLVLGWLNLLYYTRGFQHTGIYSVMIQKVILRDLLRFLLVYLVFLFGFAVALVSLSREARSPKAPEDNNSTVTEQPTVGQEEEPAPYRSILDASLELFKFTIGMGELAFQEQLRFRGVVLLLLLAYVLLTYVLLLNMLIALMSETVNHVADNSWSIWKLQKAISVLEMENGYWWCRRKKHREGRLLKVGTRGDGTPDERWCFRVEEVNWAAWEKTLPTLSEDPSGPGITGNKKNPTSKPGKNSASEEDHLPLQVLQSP
Experiment: cryo-EM structure
Assay type: binding

`COc1cc(/C=C/C(=O)N2CCC=CC2=O)cc(OC)c1OC` [PL, piperlongumine] was tested, and the “cryo-EM structure (3.5 Å, C4 symmetry)” value was “The cryo-EM density map and atomic coordinates of PL-bound rat TRPV2 are deposited”.
